Source: patent publication US20050245563A1 (Millennium Pharmaceuticals, Inc., priority 2003, published 2005)
pIC50: −log10 of the molar value.

What was measured:
human Chk1 (GST-Chk1) [1] = target: T1, human Chk1 (GST-Chk1) (Homo sapiens, UniProt O14757); experiment: Chk1 FlashPlate kinase assay; format: biochemical; conditions: 8.7 nM GST-Chk1, 1 uM ATP, 33P incorporation into peptide substrate
T1 construct: made in house; host or cells: insect cells (baculovirus, Bac-to-Bac)
T1 sequence (O14757 1-476): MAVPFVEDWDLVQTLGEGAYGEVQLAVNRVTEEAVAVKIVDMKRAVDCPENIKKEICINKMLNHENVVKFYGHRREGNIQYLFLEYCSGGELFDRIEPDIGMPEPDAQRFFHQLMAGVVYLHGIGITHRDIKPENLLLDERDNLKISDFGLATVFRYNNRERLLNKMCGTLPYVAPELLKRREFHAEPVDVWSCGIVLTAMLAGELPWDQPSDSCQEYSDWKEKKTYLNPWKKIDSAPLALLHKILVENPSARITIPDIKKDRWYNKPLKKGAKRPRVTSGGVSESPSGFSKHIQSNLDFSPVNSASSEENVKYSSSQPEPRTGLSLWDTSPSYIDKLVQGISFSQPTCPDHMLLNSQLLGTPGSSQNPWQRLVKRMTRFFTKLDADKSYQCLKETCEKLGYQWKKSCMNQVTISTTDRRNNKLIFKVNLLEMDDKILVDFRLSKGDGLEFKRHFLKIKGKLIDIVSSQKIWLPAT
Description: Recombinant human Chk1 was expressed as a fusion protein with glutathione S-transferase at the amino-terminus (GST-Chk1) using standard baculovirus vectors and (Bac-to-Bac®) insect cell expression system purchased from GIBCO™ Invitrogen. Recombinant protein expressed in insect cells was purified using glutathione sepharose (Amersham Biotech) using standard procedures described by the manufacturer.
Chk1 FlashPlate® Kinase Assay:
Assays (25 μL) contained 8.7 nM GST-Chk1, 10 mM MES, 0.1 mM ethylene glycol-bis(β-aminoethylether)-N,N,N′,N′-tetracetic acid (EGTA, pH 8.0), 2 mM DTT, 0.05% Tween 20, 3 uM peptide substrate (Biotin-ILSRRPSYRKILND-free acid) (SEQ ID NO: 1), 1 uM ATP, 0.4 uCi ^33P-γ-ATP (NEN), 4% DMSO. Reactions were incubated for 30 minutes at room temperature, terminated with 50 μL of 50 mM EDTA and 90 μL were transferred to streptavidin-coated FlashPlates® (NEN) and incubated for 1 hour at room temperature. Plates were washed with phosphate buffered salaine containing 0.01% Tween-20 and 10 mM sodium pyrophosphate. Plates were dried, sealed with Topseal™ (NEN) and amount of ^33P incorporated into the peptide substate measure using a Packard Topcount® NXT™ scintillation counter with standard settings.

human Chk1 (GST-Chk1) [2] = target: T1, human Chk1 (GST-Chk1); experiment: Chk1 DELFIA kinase assay (2 nM GST-Chk1, 600 μM ATP); format: biochemical; conditions: Biotin-GLYRSPSMPEN-amide substrate
Summary of the method: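 Enzyme is N-terminal GST-Chk1 from baculovirus/insect cells, assayed with 1 μM biotin-GLYRSPSMPEN-amide in pH 7.5 Tris buffer, 4% DMSO and 10 mM MgCl2 for 50 min at room temperature. EDTA-stopped reactions were captured on NeutrAvidin. Phospho-peptide was detected by anti-phospho-Ser216-Cdc25c antibody with europium-labeled secondary and time-resolved fluorescence.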

Row | pIC50 (human Chk1 (GST-Chk1) [1]) | pIC50 (human Chk1 (GST-Chk1) [2]) | Structure (SMILES)
1 | > 6.00 | – | Cc1n[nH]c2c1c(=O)n(CCNC(=O)C(N)Cc1ccccc1)c1ccccc21 (stereo not drawn) [Example 105, 2-Amino-N-[2-(3-methyl-4-oxo-1,4-dihydro-pyrazolo[4,3-c]quinolin-5-yl)-ethyl]-3-phenyl-propionamide]
2 | > 6.00 | – | Cc1[nH]nc2c1c(=O)n(CCCNS(=O)(=O)c1ccccc1)c1ccccc21 [Example 83, N-[3-(3-Methyl-4-oxo-2,4-dihydro-pyrazolo[4,3-c]quinolin-5-yl)-propyl]-benzenesulfonamide]
3 | > 6.00 | – | Cc1n[nH]c2c1c(=O)n(CCO)c1ccccc21 [Example 10, 5-(2-Hydroxy-ethyl)-3-methyl-1,5-dihydro-pyrazolo[4,3-c]quinolin-4-one]
4 | > 6.00 | – | Cc1[nH]nc2c1c(=O)n(CCCNC(=O)c1cccc(Cl)c1)c1ccccc21 [Example 71, 3-Chloro-N-[3-(3-methyl-4-oxo-2,4-dihydro-pyrazolo[4,3-c]quinolin-5-yl)-propyl]-benzamide]
5 | > 6.00 | – | Cc1n[nH]c2c1c(=O)n(CCCNC(=O)c1ccc(Cl)cc1)c1ccc(Cl)cc21 [Example 40, 4-Chloro-N-[3-(8-chloro-3-methyl-4-oxo-1,4-dihydro-pyrazolo[4,3-c]quinolin-5-yl)-propyl]-benzamide]
6 | > 6.00 | – | Cc1[nH]nc2c1c(=O)n(CCCN)c1ccc([N+](=O)[O-])cc21 [Example 55, 5-(3-Amino-propyl)-3-methyl-8-nitro-2,5-dihydro-pyrazolo[4,3-c]quinolin-4-one]
7 | 4.70 to 6.00 | – | Cc1[nH]nc2c1c(=O)n(CCNC(=O)c1ccc(Cl)cc1)c1ccccc21 [Example 90, 4-Chloro-N-[2-(3-methyl-4-oxo-2,4-dihydro-pyrazolo[4,3-c]quinolin-5-yl)-ethyl]-benzamide]
8 | – | > 6.00 | Cc1[nH]nc2c1c(=O)n(CCCNC(=O)c1ccc(Cl)cc1)c1ccc(CCCN3CCCC3)cc21 [Example 333]
9 | – | > 6.00 | Cc1[nH]nc2c1c(=O)n(CCCN)c1cc(I)ccc21 [Example 339, 5-(3-Aminopropyl)-7-iodo-3-methyl-2,5-dihydro-pyrazolo[4,3-c]quinolin4-one]
10 | – | > 6.00 | Cc1[nH]nc2c1c(=O)n(CCCN)c1cc(C(=O)NCCN(C)C)ccc21 [Example 335, 5-(3-Amino-propyl)-3-methyl-4-oxo-4,5-dihydro-2H-pyrazolo[4,3-c]quinoline-7-carboxylic acid (2-dimethylamino-ethyl)-amide]
11 | – | > 6.00 | Cc1[nH]nc2c1c(=O)n(CCCN)c1ccc(CCc3cccnc3)cc21 [Example 353, 5-(3-Amino-propyl)-3-methyl-8-(2-pyridin-3-yl-ethyl)-2,5-dihydro-pyrazolo[4,3-c]quinolin-4-one]
12 | – | > 6.00 | CC(=O)NCC#Cc1ccc2c(c1)c1n[nH]c(C)c1c(=O)n2CCCN [Example 276, N-{^3-[5-(3-Amino-propyl)-3-methyl-4-oxo4,5-dihydro-2H-pyrazolo[4,3-c]quinolin-8-yl]-prop-2-ynyl]-acetamide]
13 | – | > 6.00 | Cc1[nH]nc2c1c(=O)n(CCCN)c1ccc(NC(=O)CN(C)C)cc21 [Example 264, N-[5-(3-aminopropyl)-3-methyl-4-oxo4,5-dihydro-2H-pyrazolo[4,3-c]quinolin-8-yl]-2-dimethylaminoacetamide]
14 | – | > 6.00 | Cc1[nH]nc2c1c(=O)n(CCCN)c1ccc(F)cc21 [Compound 203, 5-(3-Amino-propyl)-8-fluoro-3-methyl-2,5-dihydro-pyrazolo[4,3-c]quinolin-4-one]

The remaining lines, values behind:

Row | Structure (SMILES) | pIC50 (human Chk1 (GST-Chk1) [1]) | pIC50 (human Chk1 (GST-Chk1) [2])
15 | COC(=O)CCCn1c(=O)c2c(C)n[nH]c2c2cc(Br)ccc21 [Example 17, 4-(8-Bromo-3-methyl-4-oxo-1,4-dihydro-pyrazolo[4,3-c]quinolin-5-yl)-butyric acid methyl ester] | > 6.00 | –
16 | Cc1n[nH]c2c1c(=O)n(C[C@@H](C)CNC(=O)OC(C)(C)C)c1ccc(Br)cc21 [Example 46, [3-(8-Bromo-3-methyl-4-oxo-1,4-dihydro-pyrazolo[4,3-c]quinolin-5-yl)-2-S-methyl-propyl]-carbamic acid tert-butyl ester] | > 6.00 | –
17 | CCCCNc1ccc2c(c1)c1n[nH]c(C)c1c(=O)n2CCCN [Example 116] | > 6.00 | –
18 | COc1ccc2c(c1)c1n[nH]c(C)c1c(=O)n2CCCN [Example 58] | > 6.00 | –
19 | COCCc1[nH]nc2c1c(=O)n(CCCN)c1ccc(Cl)cc21 [Example 50, 5-(3-Amino-propyl)-8-chloro-3-(2-methoxy-ethyl)-2,5-dihydro-pyrazolo[4,3-c]quinolin-4-one] | > 6.00 | –
20 | Cc1n[nH]c2c1c(=O)n(CCCNC(=O)OC(C)(C)C)c1ccc(Cl)cc21 [Example 31, [3-(8-Chloro-3-methyl-4-oxo-1,4-dihydro-pyrazolo[4,3-c]quinolin-5-yl)-propyl]-carbamic acid tert-butyl ester] | > 6.00 | –
21 | CNCC#Cc1ccc2c(c1)c1n[nH]c(C)c1c(=O)n2CCCN [Example 274, 5-(3-Amino-propyl)-3-methyl 8-(3-methylamino-prop-1-ynyl]-2,5-dihydro-pyrazolo[4,3-c]quinolin-4-one] | – | > 6.00
22 | Cc1[nH]nc2c1c(=O)n(CCCN)c1ccc(C#N)cc21 [Example 271, 5-(3-Amino-propyl)-3-methyl-4-oxo-4,5-dihydro-2H-pyrazolo[4,3-c]quinoline-8-carbonitrile] | – | > 6.00
23 | CCCc1ccc2c(c1)c1n[nH]c(C)c1c(=O)n2CCCN [Example 302, 5-(3-Amino-propyl)-3-methyl-8-propyl-2,5-dihydro-pyrazolo[4,3-c]quinolin4-one] | – | > 6.00
24 | COCCCc1ccc2c(c1)c1n[nH]c(C)c1c(=O)n2CCCN [Example 295, 5-(3-amino-propyl)-8-(3-methoxypropyl)-3-methyl-2,5-dihydro-pyrazolo[4,3-c]quinolin-4-one] | – | > 6.00
25 | NCCCn1c(=O)c2c(CCO)[nH]nc2c2cc(Cl)ccc21 [Compound 316, 5-(3-Amino-propyl)-8-chloro-3-(2-hydroxy-ethyl)-2,5-dihydro-pyrazolo[4,3-c]quinolin-4-one] | – | > 6.00
26 | Cc1[nH]nc2c1c(=O)n(C)c1c(C#CCN)cc(Cl)cc21 [Example 342, 6-(3-amino-prop-1-ynyl)-8-chloro-3,5-dimethyl-2,5-dihydro-pyrazolo[4,3-c]quinolin-4-one] | – | > 6.00
27 | CNCCCn1c(=O)c2c(CCOC)[nH]nc2c2cc(Cl)ccc21 [Example 237, 8-Chloro-3-(2-methoxy-ethyl)-5-(3-methylamino-propyl)-2,5-dihydro-pyrazolo[4,3-c]quinolin-4-one] | – | > 6.00
28 | COCCc1[nH]nc2c1c(=O)n(C[C@H]1CCCNC1)c1ccc(Cl)cc21 [Example 227, 8-Chloro-3-(2-methoxy-ethyl)-5S-piperidin-3-ylmethyl-2,5-dihydro-pyrazolo[4,3-c]quinolin-4-one] | – | > 6.00
29 | Cc1[nH]nc2c1c(=O)n(CC[C@H]1CCCCN1)c1ccc(Cl)cc21 [Compound 213, 8-Chloro-3-methyl-5-(2R-piperidin-2-yl-ethyl)-2,5-dihydro-pyrazolo[4,3-c]quinolin-4-one] | – | > 6.00
30 | COC(C)Cc1[nH]nc2c1c(=O)n(CCCN)c1ccc(Cl)cc21 (stereo not drawn) [Compound 324, 5-(3-Amino-propyl)-8-chloro-3-(2-methoxy-propyl)-2,5-dihydro-pyrazolo[4,3-c]quinolin-4-one] | – | 5.00 to 6.00
31 | Cc1[nH]nc2c1c(=O)n(CCCN)c1cc(CCCN3CCCC3)ccc21 [Example 341, 5-(3-Amino-propyl)-3-methyl-7-(3-pyrrolidin-1-yl-propyl)-2,5-dihydro-pyrazolo[4,3-c]quinolin-4-one] | – | > 6.00
32 | CCCOCCc1[nH]nc2c1c(=O)n(CCCN)c1ccc(Cl)cc21 [Example 321, 5-(3-Amino-propyl)-8-chloro-3-(2-propoxy-ethyl)-2,5-dihydro-pyrazolo[4,3-c]quinolin-4-one] | – | > 6.00
33 | COCCc1[nH]nc2c1c(=O)n(CCCN)c1ccc(C#CCN3CCCC3)cc21 [Example 305, 5-(3-Amino-propyl)-3-(2-methoxy-ethyl)-8-(3-pyrrolidin-1-yl-prop-1-ynyl)-2,5-dihydro-pyrazolo[4,3-c]quinolin-4-one] | – | > 6.00
